Tested on: MV-4-11 cells
Experiment: Gene expression microarray analysis (Affymetrix PrimeView) and GSEA
Type: cell-based, human
Set-up: RFU PODN (11730768_x_at) / Fold change /veh PODN (11730768_x_at) / RFU LINC00158 (11744669_a_at) / Fold change /veh LINC00158 (11744669_a_at) / RFU DUSP10 (11751237_a_at) / Fold change /veh DUSP10 (11751237_a_at) / RFU ID3 (11757404_x_at) / Fold change /veh ID3 (11757404_x_at) / RFU PLEKHG5 (11737974_s_at) / Fold change /veh PLEKHG5 (11737974_s_at) / RFU LRRC4B (11730491_at) / Fold change /veh LRRC4B (11730491_at) / RFU GIMAP4 (11747438_a_at) / Fold change /veh GIMAP4 (11747438_a_at) / RFU KRT8 (11758183_x_at) / Fold change /veh KRT8 (11758183_x_at) / RFU CNN1 (11734310_a_at) / Fold change /veh CNN1 (11734310_a_at) / RFU VPS37D (11726825_at) / Fold change /veh VPS37D (11726825_at) / RFU C10orf10 (11716522_x_at) / Fold change /veh C10orf10 (11716522_x_at) / RFU KIR2DL2 /// KIR2DL4 /// KIR2DL5A /// KIR2DL5B /// KIR2DS1 /// KIR2DS2 /// KIR2DS3 /// KIR2DS4 /// KIR3DL3 /// KIR3DL3 /// KIR3DS1 (11738374_at) / Fold change /veh KIR2DL2 /// KIR2DL4 /// KIR2DL5A /// KIR2DL5B /// KIR2DS1 /// KIR2DS2 /// KIR2DS3 /// KIR2DS4 /// KIR3DL3 /// KIR3DL3 /// KIR3DS1 (11738374_at) / RFU C1QL1 (11718748_at) / Fold change /veh C1QL1 (11718748_at) / RFU TMPRSS4 (11747572_a_at) / Fold change /veh TMPRSS4 (11747572_a_at) / RFU HAMP (11756126_x_at) / Fold change /veh HAMP (11756126_x_at) / RFU RNFT2 (11725882_a_at) / Fold change /veh RNFT2 (11725882_a_at) / RFU NR4A2 (11747474_a_at) / Fold change /veh NR4A2 (11747474_a_at) / RFU ABCC12 (11746883_a_at) / Fold change /veh ABCC12 (11746883_a_at) / RFU TMEM136 (11760407_x_at) / Fold change /veh TMEM136 (11760407_x_at) / RFU CLDN22 /// WWC2 (11732394_at) / Fold change /veh CLDN22 /// WWC2 (11732394_at) / RFU HLA-DPB1 (11760878_x_at) / Fold change /veh HLA-DPB1 (11760878_x_at) / RFU SPINT1 (11716480_a_at) / Fold change /veh SPINT1 (11716480_a_at) / RFU GAP43 (11754022_s_at) / Fold change /veh GAP43 (11754022_s_at) / RFU A4GNT (11735810_at) / Fold change /veh A4GNT (11735810_at) / RFU PRB3 (11715151_x_at) / Fold change /veh PRB3 (11715151_x_at) / RFU TUBB4B (11761932_at) / Fold change /veh TUBB4B (11761932_at) / RFU CAPN14 (11732068_a_at) / Fold change /veh CAPN14 (11732068_a_at) / RFU TMCC2 (11721928_a_at) / Fold change /veh TMCC2 (11721928_a_at) / RFU IRGQ (11745062_a_at) / Fold change /veh IRGQ (11745062_a_at) / RFU FAM174B (11720279_a_at) / Fold change /veh FAM174B (11720279_a_at) / RFU TMPRSS4 (11748680_a_at) / Fold change /veh TMPRSS4 (11748680_a_at) / RFU FAM212B (11763350_a_at) / Fold change /veh FAM212B (11763350_a_at) / RFU PLEKHG5 (11743358_a_at) / Fold change /veh PLEKHG5 (11743358_a_at) / RFU ZSCAN30 (11745921_a_at) / Fold change /veh ZSCAN30 (11745921_a_at) / RFU CMKLR1 (11741424_a_at) / Fold change /veh CMKLR1 (11741424_a_at) / RFU LOC101060620 /// MAPK8IP1 (11723275_at) / Fold change /veh LOC101060620 /// MAPK8IP1 (11723275_at) / RFU SPTSSB (11747773_x_at) / Fold change /veh SPTSSB (11747773_x_at) / RFU PRSS12 (11739890_at) / Fold change /veh PRSS12 (11739890_at) / RFU BIN1 (11741810_x_at) / Fold change /veh BIN1 (11741810_x_at) / RFU WNT11 (11732464_a_at) / Fold change /veh WNT11 (11732464_a_at) / RFU C10orf10 (11716521_a_at) / Fold change /veh C10orf10 (11716521_a_at) / RFU C5orf56 (11738089_at) / Fold change /veh C5orf56 (11738089_at) / RFU CYB561 (11721691_x_at) / Fold change /veh CYB561 (11721691_x_at) / RFU ANKRD19P (11752326_a_at) / Fold change /veh ANKRD19P (11752326_a_at) / RFU OR2T12 /// OR2T33 /// OR2T8 (11738714_s_at) / Fold change /veh OR2T12 /// OR2T33 /// OR2T8 (11738714_s_at) / RFU VCAN (11748164_a_at) / Fold change /veh VCAN (11748164_a_at) / RFU JSRP1 (11732532_at) / Fold change /veh JSRP1 (11732532_at) / RFU KRTAP10-11 (11738290_x_at) / Fold change /veh KRTAP10-11 (11738290_x_at) / RFU MYO3A (11730013_a_at) / Fold change /veh MYO3A (11730013_a_at) / RFU EBF3 (11725865_a_at) / Fold change /veh EBF3 (11725865_a_at) / RFU CAMK2N1 (11719241_x_at) / Fold change /veh CAMK2N1 (11719241_x_at) / RFU C5orf56 (11738088_a_at) / Fold change /veh C5orf56 (11738088_a_at) / RFU OLFML3 (11715873_a_at) / Fold change /veh OLFML3 (11715873_a_at) / RFU LOC100653217 /// NTM (11731650_a_at) / Fold change /veh LOC100653217 /// NTM (11731650_a_at) / RFU MAPK11 (11762145_a_at) / Fold change /veh MAPK11 (11762145_a_at) / RFU FIZ1 (11724087_x_at) / Fold change /veh FIZ1 (11724087_x_at) / RFU OASL (11726364_x_at) / Fold change /veh OASL (11726364_x_at) / RFU SOX15 (11748057_x_at) / Fold change /veh SOX15 (11748057_x_at) / RFU CD79A (11719716_a_at) / Fold change /veh CD79A (11719716_a_at) / RFU HIST1H1D (11736915_at) / Fold change /veh HIST1H1D (11736915_at) / RFU CASKIN2 (11723855_a_at) / Fold change /veh CASKIN2 (11723855_a_at) / RFU LOC730098 (11760151_x_at) / Fold change /veh LOC730098 (11760151_x_at) / RFU OR4N2 (11742367_at) / Fold change /veh OR4N2 (11742367_at) / RFU PRRT2 (11749266_a_at) / Fold change /veh PRRT2 (11749266_a_at) / RFU SNX32 (11753110_a_at) / Fold change /veh SNX32 (11753110_a_at) / RFU CDHR5 (11726645_a_at) / Fold change /veh CDHR5 (11726645_a_at) / RFU RCAN1 (11760418_a_at) / Fold change /veh RCAN1 (11760418_a_at) / RFU FAM167A (11723789_a_at) / Fold change /veh FAM167A (11723789_a_at) / RFU FAM26E (11764081_at) / Fold change /veh FAM26E (11764081_at) / RFU ISYNA1 (11749810_s_at) / Fold change /veh ISYNA1 (11749810_s_at) / RFU ACY1 (11761880_at) / Fold change /veh ACY1 (11761880_at) / RFU 11764098_at / Fold change /veh 11764098_at / RFU SAMD14 (11745864_x_at) / Fold change /veh SAMD14 (11745864_x_at) / RFU NPB (11741838_a_at) / Fold change /veh NPB (11741838_a_at) / RFU TMPRSS6 (11731388_a_at) / Fold change /veh TMPRSS6 (11731388_a_at) / RFU KRTAP10-2 (11738614_at) / Fold change /veh KRTAP10-2 (11738614_at) / RFU ARHGAP8 /// PRR5-ARHGAP8 (11727945_x_at) / Fold change /veh ARHGAP8 /// PRR5-ARHGAP8 (11727945_x_at) / RFU KRTAP5-7 /// NADSYN1 (11734609_at) / Fold change /veh KRTAP5-7 /// NADSYN1 (11734609_at) / RFU RASL12 (11751679_a_at) / Fold change /veh RASL12 (11751679_a_at) / RFU CDKN2B (11736163_a_at) / Fold change /veh CDKN2B (11736163_a_at) / RFU PRF1 (11729649_at) / Fold change /veh PRF1 (11729649_at) / RFU, ZNF638 /// ZNF638-IT1 / Fold change vs veh, ZNF638 /// ZNF638-IT1 / RFU, PANK3 / Fold change vs veh, PANK3 / RFU, SH3YL1 / Fold change vs veh, SH3YL1 / RFU, ZEB2 / Fold change vs veh, ZEB2 / RFU, NRIP1 / Fold change vs veh, NRIP1 / RFU, PTTG1IP / Fold change vs veh, PTTG1IP / RFU, CAPN2 / Fold change vs veh, CAPN2 / RFU, MED14 / Fold change vs veh, MED14 / RFU, SNORA58 / Fold change vs veh, SNORA58 / RFU, C1orf63 / Fold change vs veh, C1orf63 / RFU, LRRFIP1 / Fold change vs veh, LRRFIP1 / RFU, NDUFAF7 / Fold change vs veh, NDUFAF7 / RFU, SLC12A2 / Fold change vs veh, SLC12A2 / RFU, IBTK / Fold change vs veh, IBTK / RFU, ESF1 / Fold change vs veh, ESF1 / Fold change vs veh, TMEM50B / RFU, TAOK1 / Fold change vs veh, TAOK1 / RFU, ACBD3 / Fold change vs veh, ACBD3 / RFU, TMA16 / Fold change vs veh, TMA16 / RFU, RWDD3 / Fold change vs veh, RWDD3 / RFU, BCAT1 / Fold change vs veh, BCAT1 / RFU, EDEM3 / Fold change vs veh, EDEM3 / RFU, TMEM33 / Fold change vs veh, TMEM33 / RFU, WDR75 / Fold change vs veh, WDR75 / RFU, AHCTF1 / Fold change vs veh, AHCTF1 / RFU, TFRC / Fold change vs veh, TFRC / RFU, ZDHHC17 / Fold change vs veh, ZDHHC17 / RFU, NOM1 / Fold change vs veh, NOM1 / RFU, ARL8B / Fold change vs veh, ARL8B / RFU, ZBTB11 / Fold change vs veh, ZBTB11 / RFU, TAMM41 / Fold change vs veh, TAMM41 / RFU, KIAA1704 /// LOC100996395 / Fold change vs veh, KIAA1704 /// LOC100996395 / RFU, ING1 / Fold change vs veh, ING1 / RFU, TRMT61B / Fold change vs veh, TRMT61B / RFU, FUBP3 / Fold change vs veh, FUBP3 / RFU, TP53 / Fold change vs veh, TP53 / RFU, TNKS2 / Fold change vs veh, TNKS2 / RFU, ZFP14 / Fold change vs veh, ZFP14 / RFU, ACTR2 / Fold change vs veh, ACTR2 / RFU, PPP3R1 / Fold change vs veh, PPP3R1 / RFU, PIK3R1 / Fold change vs veh, PIK3R1 / RFU, HNRNPA1 / Fold change vs veh, HNRNPA1 / RFU, RNF170 / Fold change vs veh, RNF170 / RFU, ZNF28 / Fold change vs veh, ZNF28 / RFU, RNGTT / Fold change vs veh, RNGTT / RFU, OGT / Fold change vs veh, OGT / RFU, BRD1 / Fold change vs veh, BRD1 / RFU, MARS / Fold change vs veh, MARS / RFU, ZNF655 / Fold change vs veh, ZNF655 / RFU, FAHD1 / Fold change vs veh, FAHD1 / RFU, BDP1 / Fold change vs veh, BDP1 / RFU, LRRCC1 / Fold change vs veh, LRRCC1 / RFU, ARID1A / Fold change vs veh, ARID1A / RFU, ZNF146 / Fold change vs veh, ZNF146 / RFU, ZNF330 / Fold change vs veh, ZNF330 / RFU, GPN3 / Fold change vs veh, GPN3 / RFU, C9orf123 / Fold change vs veh, C9orf123 / RFU, N4BP2L2 / Fold change vs veh, N4BP2L2 / RFU, ARFIP1 / Fold change vs veh, ARFIP1 / RFU, FAM179B / Fold change vs veh, FAM179B / RFU, BCL10 / Fold change vs veh, BCL10 / RFU, UHRF1BP1L / Fold change vs veh, UHRF1BP1L / RFU, BET1 / Fold change vs veh, BET1 / RFU, CNOT2 / Fold change vs veh, CNOT2 / RFU, ZNF268 / Fold change vs veh, ZNF268 / Fold change vs veh, ZNF507 / RFU, DGCR2 / Fold change vs veh, DGCR2 / RFU, WDSUB1 / Fold change vs veh, WDSUB1 / Fold change vs veh, HSP90B1 /// MIR3652 / RFU, ADSS / Fold change vs veh, ADSS / RFU, GK / Fold change vs veh, GK / RFU, ZNF148 / Fold change vs veh, ZNF148 / RFU, TAF9 / Fold change vs veh, TAF9 / RFU, SLC1A5 / Fold change vs veh, SLC1A5 / RFU, SLMO2 / Fold change vs veh, SLMO2 / RFU, ABCC4 / Fold change vs veh, ABCC4 / RFU, LOC101060439 /// RAP1B / Fold change vs veh, LOC101060439 /// RAP1B / RFU, RFX7 / Fold change vs veh, RFX7 / RFU, GTPBP10 / Fold change vs veh, GTPBP10 / RFU, CNEP1R1 / Fold change vs veh, CNEP1R1 / RFU, BIVM-ERCC5 /// ERCC5 / Fold change vs veh, BIVM-ERCC5 /// ERCC5 / RFU, ILF3 / Fold change vs veh, ILF3 / RFU 11762660_at / Fold change /veh 11762660_at / RFU VCAN (11757783_s_at) / Fold change /veh VCAN (11757783_s_at) / RFU DDX43 (11728927_at) / Fold change /veh DDX43 (11728927_at) / RFU KRT8 (11758188_x_at) / Fold change /veh KRT8 (11758188_x_at) / RFU NKD1 (11759106_at) / Fold change /veh NKD1 (11759106_at) / RFU SRD5A1 (11742802_a_at) / Fold change /veh SRD5A1 (11742802_a_at) / RFU TPSAB1 /// TPSB2 (11721975_s_at) / Fold change /veh TPSAB1 /// TPSB2 (11721975_s_at) / RFU GSTM3 (11746129_a_at) / Fold change /veh GSTM3 (11746129_a_at) / RFU IL23R (11737362_x_at) / Fold change /veh IL23R (11737362_x_at) / RFU TMEM51 (11727254_a_at) / Fold change /veh TMEM51 (11727254_a_at) / RFU PIWIL2 (11732686_x_at) / Fold change /veh PIWIL2 (11732686_x_at) / RFU ORM1 (11744905_x_at) / Fold change /veh ORM1 (11744905_x_at) / RFU CCDC152 (11743942_at) / Fold change /veh CCDC152 (11743942_at) / RFU ECM1 (11717891_a_at) / Fold change /veh ECM1 (11717891_a_at) / RFU IL23R (11748794_a_at) / Fold change /veh IL23R (11748794_a_at) / RFU TNFAIP8L3 (11732012_x_at) / Fold change /veh TNFAIP8L3 (11732012_x_at) / RFU MBOAT4 (11741988_at) / Fold change /veh MBOAT4 (11741988_at) / RFU 11764193_at / Fold change /veh 11764193_at / RFU TMEM53 (11763286_at) / Fold change /veh TMEM53 (11763286_at) / RFU MAGEB2 (11727129_at) / Fold change /veh MAGEB2 (11727129_at) / RFU TMEM200A (11744735_a_at) / Fold change /veh TMEM200A (11744735_a_at) / RFU CCDC152 (11751479_a_at) / Fold change /veh CCDC152 (11751479_a_at) / RFU FAM211A (11726209_a_at) / Fold change /veh FAM211A (11726209_a_at) / RFU RGS16 (11746705_a_at) / Fold change /veh RGS16 (11746705_a_at) / RFU VCAN (11755009_s_at) / Fold change /veh VCAN (11755009_s_at) / RFU RHOB (11743442_s_at) / Fold change /veh RHOB (11743442_s_at) / RFU RGS16 (11720943_a_at) / Fold change /veh RGS16 (11720943_a_at) / RFU RGS16 (11720944_at) / Fold change /veh RGS16 (11720944_at) / RFU, VPS4B / Fold change vs veh, VPS4B / RFU, CREB1 / Fold change vs veh, CREB1 / RFU, DNAJC13 / Fold change vs veh, DNAJC13 / RFU, GNAQ / Fold change vs veh, GNAQ / RFU, CDK5R1 / Fold change vs veh, CDK5R1 / RFU, ZRANB3 / Fold change vs veh, ZRANB3 / RFU, CUL4A / Fold change vs veh, CUL4A / RFU, CCNY / Fold change vs veh, CCNY / RFU, UFL1 / Fold change vs veh, UFL1 / RFU, COG3 / Fold change vs veh, COG3 / RFU, DIAPH2 / Fold change vs veh, DIAPH2 / RFU, SKA2 / Fold change vs veh, SKA2 / RFU, AFF3 / Fold change vs veh, AFF3 / RFU, LMF1 / Fold change vs veh, LMF1 / RFU, IPO11 / Fold change vs veh, IPO11 / RFU, DFFB / Fold change vs veh, DFFB / RFU, FOXP1 / Fold change vs veh, FOXP1 / RFU, CARD8 / Fold change vs veh, CARD8 / RFU, STRN3 / Fold change vs veh, STRN3 / RFU, ADK / Fold change vs veh, ADK / RFU, RASSF2 / Fold change vs veh, RASSF2 / RFU, WIPF1 / Fold change vs veh, WIPF1 / RFU, LARP1B / Fold change vs veh, LARP1B / RFU, RASA1 / Fold change vs veh, RASA1 / RFU, RB1 / Fold change vs veh, RB1 / RFU, PPFIA1 / Fold change vs veh, PPFIA1 / RFU, MAT2A / Fold change vs veh, MAT2A / RFU, CCT5 / Fold change vs veh, CCT5 / RFU, WDR92 / Fold change vs veh, WDR92 / RFU, CUX1 / Fold change vs veh, CUX1 / RFU, TTC7A / Fold change vs veh, TTC7A / RFU, TMEM135 / Fold change vs veh, TMEM135 / RFU, DEPTOR / Fold change vs veh, DEPTOR / RFU, CPM / Fold change vs veh, CPM / RFU, DNAJB6 / Fold change vs veh, DNAJB6 / RFU, CACNA2D3 / Fold change vs veh, CACNA2D3 / RFU, DTX4 / Fold change vs veh, DTX4 / RFU, TFCP2 / Fold change vs veh, TFCP2 / RFU, GMCL1 /// GMCL1P1 / Fold change vs veh, GMCL1 /// GMCL1P1 / RFU, AEBP2 / Fold change vs veh, AEBP2 / RFU, SNHG1 /// SNORD22 /// SNORD25 /// SNORD26 /// SNORD27 /// SNORD28 /// SNORD29 /// SNORD31 / Fold change vs veh, SNHG1 /// SNORD22 /// SNORD25 /// SNORD26 /// SNORD27 /// SNORD28 /// SNORD29 /// SNORD31 / Fold change (Aza/veh), C12orf56 (ProbeSet 11735607_a_at) / Fold change (ACY-1035/veh), C12orf56 (ProbeSet 11735607_a_at) / Fold change (Aza/veh), FGFR1OP (ProbeSet 11751329_s_at) / Fold change (ACY-1035/veh), FGFR1OP (ProbeSet 11751329_s_at) / Fold change (Aza/veh), VPS36 (ProbeSet 11739960_a_at) / Fold change (ACY-1035/veh), VPS36 (ProbeSet 11739960_a_at) / RFU SYPL1 (11715823_x_at) / Fold change /veh SYPL1 (11715823_x_at) / RFU IGFBP7 (11715501_s_at) / Fold change /veh IGFBP7 (11715501_s_at) / RFU REEP3 (11722064_at) / Fold change /veh REEP3 (11722064_at) / RFU IGLL1 (11728026_x_at) / Fold change /veh IGLL1 (11728026_x_at): dose or concentration left out as unconfirmed
Details: ProbeSet 11726661_s_at; LIST B

Nc1ncn([C@@H]2O[C@H](CO)[C@@H](O)[C@H]2O)c(=O)n1 [azacitidine]
Fold change vs veh, GPN3: 0.91

Source: publication PMC5218480 (PLoS ONE, 2017)
